Reference: publication PMC10620772, “Design, synthesis, and biological evaluation of new pyrimidine-5-carbonitrile derivatives as novel anti-cancer, dual EGFR^WT/COX-2 inhibitors with docking studies” (RSC Advances, 2023)

Legend:
Type in all cases: cell-based, human
BT-549 = assay: NCI60 antitumor screening; details: 10 μM one-dose
MALME-3M = assay: NCI60 antitumor screening; details: 10 μM one-dose
SF-539 = assay: NCI60 antitumor screening; details: 10 μM one-dose
NCI-H226 = assay: NCI60 antitumor screening; details: 10 μM one-dose
UACC-62 = assay: NCI60 antitumor screening; details: 10 μM one-dose
786–0 = assay: NCI60 antitumor screening; details: 10 μM one-dose
CAKI-1 = assay: NCI60 antitumor screening; details: 10 μM one-dose
SW-620 = assay: NCI60 antitumor screening; details: 10 μM one-dose
SK-MEL-5 = assay: NCI60 antitumor screening; details: 10 μM one-dose
MDA-MB-231/ATCC = assay: NCI60 antitumor screening; details: 10 μM one-dose
NCI-H23 = assay: NCI60 antitumor screening; details: 10 μM one-dose
OVCAR-3 = assay: NCI60 antitumor screening; details: 10 μM one-dose
PC-3 = assay: NCI60 antitumor screening; details: 10 μM one-dose
EKVX = assay: NCI60 antitumor screening; details: 10 μM one-dose
MDA-MB-468 = assay: NCI60 antitumor screening; details: 10 μM one-dose
RXF 393 = assay: NCI60 antitumor screening; details: 10 μM one-dose
T-47D = assay: NCI60 antitumor screening; details: 10 μM one-dose
A549/ATCC = assay: NCI60 antitumor screening; details: 10 μM one-dose
NCI-H322M = assay: NCI60 antitumor screening; details: 10 μM one-dose
NCI/ADR-RES = assay: NCI60 antitumor screening; details: 10 μM one-dose
HCT-116 = assay: NCI60 antitumor screening; details: 10 μM one-dose
SR = assay: NCI60 antitumor screening; details: 10 μM one-dose
NCI60 cell lines panel = assay: NCI60 antitumor screening, full panel; details: 10 μM one-dose, mean over NCI60
Method in brief: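 Single-concentration screen at 10 μM across the NCI60 panel (leukaemia, NSCLC, colon, CNS, melanoma, ovarian, renal, prostate, breast). Results are expressed as percent growth inhibition (GI%) of treated lines.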

M14 = assay: NCI60 antitumor screening; details: 10 μM one-dose
ACHN = assay: NCI60 antitumor screening; details: 10 μM one-dose
SN12C = assay: NCI60 antitumor screening; details: 10 μM one-dose
HOP-92 = assay: NCI60 antitumor screening; details: 10 μM one-dose
COLO 205 = assay: NCI60 antitumor screening; details: 10 μM one-dose
OVCAR-5 = assay: NCI60 antitumor screening; details: 10 μM one-dose
NCI-H522 = assay: NCI60 antitumor screening; details: 10 μM one-dose
SF-268 = assay: NCI60 antitumor screening; details: 10 μM one-dose
SNB-75 = assay: NCI60 antitumor screening; details: 10 μM one-dose
MOLT-4 = assay: NCI60 antitumor screening; details: 10 μM one-dose
HT29 = assay: NCI60 antitumor screening; details: 10 μM one-dose
K-562 = assay: NCI60 antitumor screening; details: 10 μM one-dose
A498 = assay: NCI60 antitumor screening; details: 10 μM one-dose
OVCAR-8 = assay: NCI60 antitumor screening; details: 10 μM one-dose
UO-31 = assay: NCI60 antitumor screening; details: 10 μM one-dose
MDA-MB-435 = assay: NCI60 antitumor screening; details: 10 μM one-dose
CCRF-CEM = assay: NCI60 antitumor screening; details: 10 μM one-dose
IGROV1 = assay: NCI60 antitumor screening; details: 10 μM one-dose
HCT-15 = assay: NCI60 antitumor screening; details: 10 μM one-dose
HOP-62 = assay: NCI60 antitumor screening; details: 10 μM one-dose
TK-10 = assay: NCI60 antitumor screening; details: 10 μM one-dose
HCC-2998 = assay: NCI60 antitumor screening; details: 10 μM one-dose
SK-MEL-2 = assay: NCI60 antitumor screening; details: 10 μM one-dose
DU-145 = assay: NCI60 antitumor screening; details: 10 μM one-dose
MCF7 = assay: NCI60 antitumor screening; details: 10 μM one-dose
OVCAR-4 = assay: NCI60 antitumor screening; details: 10 μM one-dose
NCI-H460 = assay: NCI60 antitumor screening; details: 10 μM one-dose
SNB-19 = assay: NCI60 antitumor screening; details: 10 μM one-dose
RPMI-8226 = assay: NCI60 antitumor screening; details: 10 μM one-dose
HL-60(TB) = assay: NCI60 antitumor screening; details: 10 μM one-dose
LOX IMVI = assay: NCI60 antitumor screening; details: 10 μM one-dose
SF-295 = assay: NCI60 antitumor screening; details: 10 μM one-dose
SK-MEL-28 = assay: NCI60 antitumor screening; details: 10 μM one-dose
UACC-257 = assay: NCI60 antitumor screening; details: 10 μM one-dose
KM12 = assay: NCI60 antitumor screening; details: 10 μM one-dose
U251 = assay: NCI60 antitumor screening; details: 10 μM one-dose
HS 578T = assay: NCI60 antitumor screening; details: 10 μM one-dose
SK-OV-3 = assay: NCI60 antitumor screening; details: 10 μM one-dose

N#Cc1c(Cl)nc(SCc2ccc([N+](=O)[O-])cc2)nc1-c1ccc(F)cc1 [3c, 4-Chloro-6-(4-fluorophenyl)-2-((4-nitrobenzyl)thio) pyrimidine-5-carbonitrile]
GI% (BT-549): 43.62% | GI% (MALME-3M): — (GI% < 10) | GI% (SF-539): 28.21% | GI% (NCI-H226): 46.54% | GI% (UACC-62): 22.80% | GI% (786–0): 21.29% | GI% (CAKI-1): 32.89% | GI% (SW-620): 37.21% | GI% (SK-MEL-5): 22.36% | GI% (MDA-MB-231/ATCC): — (GI% < 10) | GI% (NCI-H23): 12.20% | GI% (OVCAR-3): 13.71% | GI% (PC-3): 57.37% | GI% (EKVX): 20.38% | GI% (MDA-MB-468): 19.68% | GI% (RXF 393): 29.76% | GI% (T-47D): 68.67% | GI% (A549/ATCC): 33.50% | GI% (NCI-H322M): 13.28% | GI% (NCI/ADR-RES): 27.59% | GI% (HCT-116): 40.70% | GI% (SR): — (GI% < 10) | Mean GI% (NCI60 cell lines panel): 23.91% | GI% (M14): 12.41% | GI% (ACHN): 14.60% | GI% (SN12C): 29.81% | GI% (HOP-92): 45.40% | GI% (COLO 205): 22.66% | GI% (OVCAR-5): — (GI% < 10) | GI% (NCI-H522): 37.48% | GI% (SF-268): 18.20% | GI% (SNB-75): — (GI% < 10) | GI% (MOLT-4): 38.07% | GI% (HT29): 61.63% | GI% (K-562): 44.30% | GI% (A498): — (GI% < 10) | GI% (OVCAR-8): 16.16% | GI% (UO-31): 32.10% | GI% (MDA-MB-435): — (GI% < 10) | GI% (CCRF-CEM): 32.30% | GI% (IGROV1): — (GI% < 10) | GI% (HCT-15): 45.64% | GI% (HOP-62): — (GI% < 10) | GI% (TK-10): — (GI% < 10) | GI% (HCC-2998): 12.17% | GI% (SK-MEL-2): — (GI% < 10) | GI% (DU-145): 24.93% | GI% (MCF7): 27.06% | GI% (OVCAR-4): 18.42% | GI% (NCI-H460): 13.48% | GI% (SNB-19): 10.67% | GI% (RPMI-8226): 41.51% | GI% (HL-60(TB)): 57.98% | GI% (LOX IMVI): 14.22% | GI% (SF-295): 29.81% | GI% (SK-MEL-28): — (GI% < 10) | GI% (UACC-257): 24.66% | GI% (KM12): 27.77% | GI% (U251): 31.17% | GI% (HS 578T): 13.31% | GI% (SK-OV-3): 11.73%
